Values quoted from earlier work as cited in patent US5750504A, “Antimicrobial proteins” (Zeneca Agrochemicals, priority 1996, dated 1998).
Where no end group is shown, it is not given here.

Columns and labels:
[1] = test system: hyphae of Fusarium culmorum; details: Terras FRG et al, 1992; cited from earlier work
fungi = details: Rs-AFP-type proteins of WO93/05153; cited from earlier work

Row | Substance | hyper-branching of hyphae of Fusarium culmorum [1] | hyperbranching of fungi (fungi)
1 | Rs-AFP2: antifungal protein from Raphanus sativus seeds, SEQ ID NO 4 (ZKLCQRPSGTWSGVCGNNNACKNQCIRLEKARHGSCNYVFPAHKCICYFPC) | A similar effect | cause hyperbranching
2 | Rs-AFP1: antifungal protein from Raphanus sativus seeds, SEQ ID NO 3 (ZKLCERPSGTWSGVCGNNNACKNQCINLEKARHGSCNYVFPAHKCICYFPC) | A similar effect | cause hyperbranching
3 | Dm-AMP1: antimicrobial protein capable of isolation from Dahlia merckii, SEQ ID NO 5 (ELCEKASKTWSGNCGNTGHCDNQCKSWEGAAHGACHVRNGKHMCFCYFNC; ends and bridges not checked; cysteine pairing not given here) |  | do not
4 | Cb-AMP1: antimicrobial protein capable of isolation from Cnicus benedictus, SEQ ID NO 6 (ELCEKASKTWSGNCGNTKHCDDQCKSWEGAAHGACHVRNGKHMCFCYFNC; ends and bridges not checked; cysteine pairing not given here) |  | do not
